# Patent publication US20240317780A1, “RADIOPHARMACEUTICAL SOMATOSTATIN RECEPTOR LIGANDS AND PRECURSORS THEREOF” (Technische Universität München, priority 2021, published 2024)
# Target: T1, SST2 (Homo sapiens, UniProt P30874)
# T1 construct: expressed in transfected cells; host or cells: CHO (Chinese hamster ovary) cells
# Assay: Determination of IC50: competitive binding against [125I]TOC on SST2-transfected CHO cells
# Conditions: [125I]TOC reference radioligand, 60 min room temperature
# Description: The SST2-transfected CHO cells were cultivated in Dulbecco's Modified Eagle Medium/Nutrient Mixture F-12 (DMEM/F-12) with Glutamax-I (1:1) (Gibco), supplemented with 10% fetal calf serum (FCS) and maintained at 37° C. in a humidified 5% CO2 atmosphere. […] After removal of the culture medium, the cells were treated once with 300 μL of HBSS-B (Hank's balanced salt solution, Biochrom, Berlin, Germany, with addition of 1% bovine serum albumin (BSA)) and left with 200 μL HBSS-B. Next, 25 μL per well of solutions, containing either HBSS-B (control) or the respective ligand in increasing concentration (10^−10-10^−4 M in HBSS-B, were added with subsequent addition of 25 μL of
# [^125I]TOC ([^125I]Tyr^3-Octreotide) (1.0 nM) in HBSS-B. Each concentration is investigated in triplicate. After 60 min incubation at room temperature, the experiment was terminated by removal of the assay medium and consecutive rinsing with 300 μL of cold PBS. The media of both steps were combined in one fraction and represent the amount of unbound radioligand.
# Afterwards, the cells were lysed with 300 μL of 1 M NaOH and united with the 300 μL 1 M NaOH of the following wash step. Quantification of bound and unbound radioligand was accomplished in a γ-counter.
# T1 sequence (P30874 whole entry, species assumed): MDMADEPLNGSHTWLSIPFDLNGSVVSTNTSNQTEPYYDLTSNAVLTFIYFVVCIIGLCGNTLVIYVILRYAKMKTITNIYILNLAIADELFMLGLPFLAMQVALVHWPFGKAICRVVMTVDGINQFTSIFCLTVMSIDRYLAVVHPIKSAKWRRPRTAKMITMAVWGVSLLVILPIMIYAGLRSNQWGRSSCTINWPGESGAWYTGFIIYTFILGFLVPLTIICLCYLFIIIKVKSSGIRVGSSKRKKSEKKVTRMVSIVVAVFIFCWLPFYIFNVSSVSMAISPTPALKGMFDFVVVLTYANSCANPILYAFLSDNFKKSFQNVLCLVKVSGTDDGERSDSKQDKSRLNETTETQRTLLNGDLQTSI
row,SMILES,IC50 [nM]
1,"C[C@@H](O)[C@H](NC(=O)C1CSSCC(NC(=O)C(Cc2ccccc2)NC(=O)[C@@H](CC(N)=O)NC(=O)C(CC(N)=O)NC(=O)[C@@H](CC(=O)O)NC(=O)C(CC(=O)O)NC(=O)[C@@H](CNC(=O)CN2CCN(CC(=O)O)CCN(CC(=O)O)CCN(CC(=O)O)CC2)NC(=O)C[N+](C)(C)Cc2ccc([Si](F)(C(C)(C)C)C(C)(C)C)cc2)C(=O)N[C@@H](Cc2ccc(O)cc2)C(=O)NC(Cc2c[nH]c3ccccc23)C(=O)N[C@@H](CCCCN)C(=O)N[C@@H]([C@@H](C)O)C(=O)N1)C(=O)O (stereo partly drawn) (natGa complex, metal not drawn) [[Ga]48]",6.1 ± 0.57
2,"C[C@@H](O)[C@H](NC(=O)C1CSSCC(NC(=O)C(Cc2ccccc2)NC(=O)[C@@H](CC(N)=O)NC(=O)C(CC(N)=O)NC(=O)CNC(=O)C(CC(=O)O)NC(=O)[C@@H](CC(=O)O)NC(=O)C(CNC(=O)CN2CCN(CC(=O)O)CCN(CC(=O)O)CCN(CC(=O)O)CC2)NC(=O)C[N+](C)(C)Cc2ccc([Si](F)(C(C)(C)C)C(C)(C)C)cc2)C(=O)N[C@@H](Cc2ccc(O)cc2)C(=O)NC(Cc2c[nH]c3ccccc23)C(=O)N[C@@H](CCCCN)C(=O)N[C@@H]([C@@H](C)O)C(=O)N1)C(=O)O (stereo partly drawn) (natGa complex, metal not drawn) [[Ga]49]",6.31 ± 0.99
3,"C[C@@H](O)[C@H](NC(=O)C1CSSCC(NC(=O)C(Cc2ccccc2)NC(=O)CNC(=O)CNC(=O)CNC(=O)C(CC(=O)O)NC(=O)[C@@H](CC(=O)O)NC(=O)C(CNC(=O)CN2CCN(CC(=O)O)CCN(CC(=O)O)CCN(CC(=O)O)CC2)NC(=O)[C@@H](CN)NC(=O)C[N+](C)(C)Cc2ccc([Si](F)(C(C)(C)C)C(C)(C)C)cc2)C(=O)N[C@@H](Cc2ccc(O)cc2)C(=O)NC(Cc2c[nH]c3ccccc23)C(=O)N[C@@H](CCCCN)C(=O)N[C@@H]([C@@H](C)O)C(=O)N1)C(=O)O (stereo partly drawn) (natGa complex, metal not drawn) [[Ga]51]",3.56 ± 0.25
4,"C[C@@H](O)[C@H](NC(=O)C1CSSCC(NC(=O)C(Cc2ccccc2)NC(=O)CNC(=O)CNC(=O)CNC(=O)C(CC(=O)O)NC(=O)[C@@H](CC(=O)O)NC(=O)C(CNC(=O)CN2CCN(CC(=O)O)CCN(CC(=O)O)CCN(CC(=O)O)CC2)NC(=O)[C@@H](CN)NC(=O)CNC(=O)C[N+](C)(C)Cc2ccc([Si](F)(C(C)(C)C)C(C)(C)C)cc2)C(=O)N[C@@H](Cc2ccc(O)cc2)C(=O)NC(Cc2c[nH]c3ccccc23)C(=O)N[C@@H](CCCCN)C(=O)N[C@@H]([C@@H](C)O)C(=O)N1)C(=O)O (stereo partly drawn) (natGa complex, metal not drawn) [[Ga]52]",3.69 ± 0.34
5,"C[C@@H](O)[C@H](NC(=O)C1CSSCC(NC(=O)C(Cc2ccccc2)NC(=O)CNC(=O)CNC(=O)CNC(=O)C(CC(=O)O)NC(=O)[C@@H](CC(=O)O)NC(=O)C(CNC(=O)CN2CCN(CC(=O)O)CCN(CC(=O)O)CCN(CC(=O)O)CC2)NC(=O)[C@@H](CN)NC(=O)CNC(=O)CNC(=O)C[N+](C)(C)Cc2ccc([Si](F)(C(C)(C)C)C(C)(C)C)cc2)C(=O)N[C@@H](Cc2ccc(O)cc2)C(=O)NC(Cc2c[nH]c3ccccc23)C(=O)N[C@@H](CCCCN)C(=O)N[C@@H]([C@@H](C)O)C(=O)N1)C(=O)O (stereo partly drawn) (natGa complex, metal not drawn) [[Ga]53]",3.4 ± 0.18
6,"C[C@@H](O)[C@H](NC(=O)C1CSSCC(NC(=O)C(Cc2ccccc2)NC(=O)CNC(=O)CNC(=O)[C@@H](CC(=O)O)NC(=O)C(CC(=O)O)NC(=O)[C@@H](CNC(=O)CN2CCN(CC(=O)O)CCN(CC(=O)O)CCN(CC(=O)O)CC2)NC(=O)C(CN)NC(=O)c2ccc([Si](F)(C(C)(C)C)C(C)(C)C)cc2)C(=O)N[C@@H](Cc2ccc(O)cc2)C(=O)NC(Cc2c[nH]c3ccccc23)C(=O)N[C@@H](CCCCN)C(=O)N[C@@H]([C@@H](C)O)C(=O)N1)C(=O)O (stereo partly drawn) (natLu complex, metal not drawn) [[Lu]19]",13.3 ± 1.97
7,"C[C@@H](O)[C@H](NC(=O)C1CSSCC(NC(=O)C(Cc2ccccc2)NC(=O)CNC(=O)CNC(=O)[C@@H](CC(=O)O)NC(=O)C(CC(=O)O)NC(=O)[C@@H](CNC(=O)CC[C@H](C(=O)O)N2CCN(CC(=O)O)CCN(CC(=O)O)CCN(CC(=O)O)CC2)NC(=O)C(CN)NC(=O)c2ccc([Si](F)(C(C)(C)C)C(C)(C)C)cc2)C(=O)N[C@@H](Cc2ccc(O)cc2)C(=O)NC(Cc2c[nH]c3ccccc23)C(=O)N[C@@H](CCCCN)C(=O)N[C@@H]([C@@H](C)O)C(=O)N1)C(=O)O (stereo partly drawn) (natLu complex, metal not drawn) [[Lu]20]",11 ± 5.69
8,"C[C@@H](O)[C@H](NC(=O)C1CSSCC(NC(=O)C(Cc2ccccc2)NC(=O)CNC(=O)CNC(=O)[C@@H](CC(=O)O)NC(=O)C(CC(=O)O)NC(=O)[C@@H](CNC(=O)CN2CCN(CC(=O)O)CCN(CC(=O)O)CCN(CC(=O)O)CC2)NC(=O)C[N+](C)(C)Cc2ccc([Si](F)(C(C)(C)C)C(C)(C)C)cc2)C(=O)N[C@@H](Cc2ccc(O)cc2)C(=O)NC(Cc2c[nH]c3ccccc23)C(=O)N[C@@H](CCCCN)C(=O)N[C@@H]([C@@H](C)O)C(=O)N1)C(=O)O (stereo partly drawn) (natLu complex, metal not drawn) [[Lu]24]",5.5 ± 0.76
9,"C[C@@H](O)[C@H](NC(=O)C1CSSCC(NC(=O)C(Cc2ccccc2)NC(=O)CNC(=O)CNC(=O)CNC(=O)C(CC(=O)O)NC(=O)[C@@H](CC(=O)O)NC(=O)C(CNC(=O)C[N+](C)(C)Cc2ccc([Si](F)(C(C)(C)C)C(C)(C)C)cc2)NC(=O)CN2CCN(CC(=O)O)CCN(CC(=O)O)CCN(CC(=O)O)CC2)C(=O)N[C@@H](Cc2ccc(O)cc2)C(=O)NC(Cc2c[nH]c3ccccc23)C(=O)N[C@@H](CCCCN)C(=O)N[C@@H]([C@@H](C)O)C(=O)N1)C(=O)O (stereo partly drawn) (natLu complex, metal not drawn) [[Lu]44]",3.86 ± 0.23
10,"C[C@@H](O)[C@H](NC(=O)C1CSSCC(NC(=O)C(Cc2ccccc2)NC(=O)CNC(=O)CNC(=O)CNC(=O)C(CC(=O)O)NC(=O)[C@@H](CC(=O)O)NC(=O)C(CCCCN)NC(=O)[C@@H](CNC(=O)C[N+](C)(C)Cc2ccc([Si](F)(C(C)(C)C)C(C)(C)C)cc2)NC(=O)CN2CCN(CC(=O)O)CCN(CC(=O)O)CCN(CC(=O)O)CC2)C(=O)N[C@@H](Cc2ccc(O)cc2)C(=O)NC(Cc2c[nH]c3ccccc23)C(=O)N[C@@H](CCCCN)C(=O)N[C@@H]([C@@H](C)O)C(=O)N1)C(=O)O (stereo partly drawn) (natLu complex, metal not drawn) [[Lu]45]",3.37 ± 0.35
11,"C[C@@H](O)[C@H](NC(=O)C1CSSCC(NC(=O)C(Cc2ccccc2)NC(=O)CNC(=O)CNC(=O)CNC(=O)C(CC(=O)O)NC(=O)[C@@H](CC(=O)O)NC(=O)C(CCCNC(N)=O)NC(=O)[C@@H](CNC(=O)C[N+](C)(C)Cc2ccc([Si](F)(C(C)(C)C)C(C)(C)C)cc2)NC(=O)CN2CCN(CC(=O)O)CCN(CC(=O)O)CCN(CC(=O)O)CC2)C(=O)N[C@@H](Cc2ccc(O)cc2)C(=O)NC(Cc2c[nH]c3ccccc23)C(=O)N[C@@H](CCCCN)C(=O)N[C@@H]([C@@H](C)O)C(=O)N1)C(=O)O (stereo partly drawn) (natLu complex, metal not drawn) [[Lu]46]",4.07 ± 0.52
12,"C[C@@H](O)[C@H](NC(=O)C1CSSCC(NC(=O)C(Cc2ccccc2)NC(=O)CNC(=O)CNC(=O)CNC(=O)C(CC(=O)O)NC(=O)[C@@H](CC(=O)O)NC(=O)C(CCC(=O)O)NC(=O)[C@@H](CNC(=O)C[N+](C)(C)Cc2ccc([Si](F)(C(C)(C)C)C(C)(C)C)cc2)NC(=O)CN2CCN(CC(=O)O)CCN(CC(=O)O)CCN(CC(=O)O)CC2)C(=O)N[C@@H](Cc2ccc(O)cc2)C(=O)NC(Cc2c[nH]c3ccccc23)C(=O)N[C@@H](CCCCN)C(=O)N[C@@H]([C@@H](C)O)C(=O)N1)C(=O)O (stereo partly drawn) (natLu complex, metal not drawn) [[Lu]47]",5.13 ± 0.51
13,"C[C@@H](O)[C@H](NC(=O)C1CSSCC(NC(=O)C(Cc2ccccc2)NC(=O)[C@@H](CC(N)=O)NC(=O)C(CC(N)=O)NC(=O)[C@@H](CC(=O)O)NC(=O)C(CC(=O)O)NC(=O)[C@@H](CNC(=O)CN2CCN(CC(=O)O)CCN(CC(=O)O)CCN(CC(=O)O)CC2)NC(=O)C[N+](C)(C)Cc2ccc([Si](F)(C(C)(C)C)C(C)(C)C)cc2)C(=O)N[C@@H](Cc2ccc(O)cc2)C(=O)NC(Cc2c[nH]c3ccccc23)C(=O)N[C@@H](CCCCN)C(=O)N[C@@H]([C@@H](C)O)C(=O)N1)C(=O)O (stereo partly drawn) (natLu complex, metal not drawn) [[Lu]48]",5.5 ± 1.47
14,"C[C@@H](O)[C@H](NC(=O)C1CSSCC(NC(=O)C(Cc2ccccc2)NC(=O)[C@@H](CC(N)=O)NC(=O)C(CC(N)=O)NC(=O)CNC(=O)C(CC(=O)O)NC(=O)[C@@H](CC(=O)O)NC(=O)C(CNC(=O)CN2CCN(CC(=O)O)CCN(CC(=O)O)CCN(CC(=O)O)CC2)NC(=O)C[N+](C)(C)Cc2ccc([Si](F)(C(C)(C)C)C(C)(C)C)cc2)C(=O)N[C@@H](Cc2ccc(O)cc2)C(=O)NC(Cc2c[nH]c3ccccc23)C(=O)N[C@@H](CCCCN)C(=O)N[C@@H]([C@@H](C)O)C(=O)N1)C(=O)O (stereo partly drawn) (natLu complex, metal not drawn) [[Lu]49]",4.47 ± 0.95
15,"C[C@@H](O)[C@H](NC(=O)C1CSSCC(NC(=O)C(Cc2ccccc2)NC(=O)CNC(=O)CNC(=O)CNC(=O)C(CC(=O)O)NC(=O)[C@@H](CC(=O)O)NC(=O)C(CNC(=O)CN2CCN(CC(=O)O)CCN(CC(=O)O)CCN(CC(=O)O)CC2)NC(=O)C[N+](C)(C)Cc2ccc([Si](F)(C(C)(C)C)C(C)(C)C)cc2)C(=O)N[C@@H](Cc2ccc(O)cc2)C(=O)NC(Cc2c[nH]c3ccccc23)C(=O)N[C@@H](CCCCN)C(=O)N[C@@H]([C@@H](C)O)C(=O)N1)C(=O)O (stereo partly drawn) (natLu complex, metal not drawn) [[Lu]50]",3.72 ± 0.61
